This is an account of results in publication PMC11142920, “De novo-designed transmembrane proteins bind and regulate a cytokine receptor” (Nature Chemical Biology, 2024).

The subject of one series is mEpoR. Kind of series: EPO-induced proliferation (growth inhibition) of BaF3/mEpoR cells expressing TM proteins. Type of series: cell-based, mouse. The conditions noted are these: 0.06 U ml^−1 EPO, IL-3-free, 6-8 days; versus empty vector. As for the experimental part:
Mouse IL-3-dependent BaF3 and derivative cells were maintained in RPMI-10 medium: RPMI-1640 supplemented with 10% heat-inactivated FBS, 5% WEHI-3B cell-conditioned medium (as the source of IL-3), 4 mM L-glutamine, 0.06 mM β-mercaptoethanol and 1⨯ P-S. BaF3 cells expressing mEpoR, hEpoR and all EpoR mutants and chimeras were generated by infecting BaF3 cells with pMSCV-neo vector containing the desired HA-tagged EpoR gene. BaF3 cells (5 ⨯ 10^5) were washed with PBS and then resuspended in 500 μl of RPMI-10 medium with 4 μg ml^−1 polybrene. […]
For proliferation assays, 2 ⨯ 10^5 BaF3 and derivative cells expressing the appropriate genes were washed in PBS three times to remove IL-3. […] Viable cells were counted 6−8 days after IL-3 removal. […] The statistical significance of differences between control and experimental samples was evaluated by either one-tailed or two-tailed Student’s t-tests with unequal variance, performed using the T.TEST function in Microsoft Excel (2013).
For proliferation assays, BaF3/mEpoR/tTA cells expressing CHAMP proteins were first cultured in 10 ml of RPMI-10/IL-3 medium in the absence of Dox or supplemented with 100 or 200 pg ml^−1 Dox for 48 h. Then, 2 ⨯ 10^5 BaF3 cells were washed in PBS, resuspended in IL-3-free medium supplemented with the same concentration of Dox and 0.06 U ml^−1 human EPO, and counted as described above.

The subject of a further series is mEpoR−GFP1-10. Kind of series: Split GFP complementation with mEpoR−GFP1-10. The class given is cell-based, mouse. As to conditions: flow cytometry, BaF3 cells.
For a further series, the system named is ErbB2−GFP1-10. Kind of series: Split GFP complementation with ErbB2−GFP1-10. The class given is cell-based. The conditions noted are these: flow cytometry, BaF3 (tTa) cells, 1 pM doxycycline. In general terms: Flow cytometry measures light scatter and fluorescence of single cells or particles in a stream.
Series [1] has as its target mEpoR-TM2 (isotope-labeled mEpoR TM domain fragment) (mouse). The experiment in a line: SDS-PAGE; mEpoR TM peptide on SDS-PAGE, non-covalent monomer and dimer bands.
The next series deals with mEpoR TM domain. As to conditions: parallel self-interaction; ref [25]–[28]; cited from earlier work. From the text: EpoR is a prototypical cytokine receptor whose TM domain contributes to both receptor homodimerization[25]–[27] and conformational coupling upon ligand binding[28],[29], activating the Janus kinase (JAK)−signal transducer and activator of transcription (STAT) pathway. […] In model membranes, designed TM peptides hosting SXXLXXX sequence repeats spontaneously homodimerize, strongly favoring parallel TM helix geometry like that of ...

In series [2] the target is GFP11−CHAMP-1 (Flag tag, GFP11, GGG linker, CHAMP-1). The experiment in a line: split reporter (BiFC, NanoBiT); split GFP complementation in BaF3 cells co-expressing a GFP1-10 fusion and a GFP11 fusion; mean fluorescence intensity by flow cytometry.

Bounds are passed on as bounds.

On to “MDHLGASLWPQVGSLCLLLAGAAWAPPLDPLILTLSLILVLISLLLTVLALLSHRRALKQKIWPGIPSPESEGPYSNPYENSLIPAAEPLPPSYVACS [mEpoR TM domain mimic protein, type I mEpoR TM domain mimic protein expressed in BaF3 cells]”, for which the “inhibition of EPO-induced proliferation (in words)” value in the series with mEpoR is recorded as “did not show inhibited proliferation”. As to “MDHLGASLWPQVGSLCLLLAGAAWERVQLAHHFSEPEITLIIFGVMAGVIGTILLISYGIRRLIGGSGGGGSGGRDHMVLHEYVNAAGIT [glycophorin A, GlycophorinA TM domain construct fused at its c-terminus to GFP11]”, in the series with mEpoR−GFP1-10, the “fluorescence in mEpoR−GFP1-10 expressing cells (in words)” value is reported as “fluorescence was not increased”. For the molecule “MDHLGASLWPQVGSLCLLLAGAAWPVTFIIATVVGVLLFLILVVVVGILGGSGGGGSGGRDHMVLHEYVNAAGIT [ErbB2 TM domain fusion, ErbB2 TM domain construct fused to GFP11 at its c-terminus]”, the “complementation of ErbB2−GFP1-10” value with ErbB2−GFP1-10 is “could complement ErbB2−GFP1-10”. Also, the “fluorescence in mEpoR−GFP1-10 expressing cells (in words)” value in the series on mEpoR−GFP1-10 is “fluorescence was not increased”.

In the case of “MRLPGAMPALALKGELLLLSLLLLLEPQISQGLVVTPKVVVISAILALVVLTIISLIILIMLWQKKPRYEIRWKVIESVSCPAPRAEAEDSFL [PDGFβR, unrelated platelet-derived growth factor β receptor TM domain protein construct]”, in the series with mEpoR, the “inhibition of EPO-induced proliferation (in words)” value is recorded as “did not show inhibited proliferation”. As to “mEpoR-TM2 (isotope-labeled mEpoR TM domain fragment) (peptide)”, the stoichiometry N (as a rule, a count of units in the complex or per binding partner) in series [1] was determined as 2.

B1: mEpoR: mouse erythropoietin receptor (target); TM domain (protein)
chain: APSPSLPDPKFESKAALLASRGSEELLCFTQRLEDLVCFWEEAASSGMDFNYSFSYQLEGESRKSCSLHQAPTVRGSVRFWCSLPTADTSSFVPLELQVTEASGSPRYHRIIHINEVVLLDAPAGLLARRAEEGSHVVLRWLPPPGAPMTTHIRYEVDVSAGNRAGGTQRVEVLEGRTECVLSNLRGGTRYTFAVRARMAEPSFSGFWSAWSEPASLLTASDLDPLILTLSLILVLISLLLTVLALLSHRRTLQQKIWPGIPSPESEFEGLFTTHKGNFQLWLLQRDGCLWWSPGSSFPEDPPAHLEVLSEPRWAVTQAGDPGADDEGPLLEPVGSEHAQDTYLVLDKWLLPRTPCSENLSGPGGSVDPVTMDEASETSSCPSDLASKPRPEGTSPSSFEYTILDPSSQLLCPRALPPELPPTPPHLKYLYLVVSDSGISTDYSSGGSQGVHGDSSDGPYSHPYENSLVPDSEPLHPGYVACS
modifications: left off: HA, end not stated, kept
notes: mouse erythropoietin receptor (target); TM domain
Take B1: the “homodimerization of mEpoR TM domains” value with mEpoR TM domain is recorded as “only weakly homodimerize”.

B2: mEpoR−GFP1-10 fusion protein (domain or fragment)
chain: APSPSLPDPKFESKAALLASRGSEELLCFTQRLEDLVCFWEEAASSGMDFNYSFSYQLEGESRKSCSLHQAPTVRGSVRFWCSLPTADTSSFVPLELQVTEASGSPRYHRIIHINEVVLLDAPAGLLARRAEEGSHVVLRWLPPPGAPMTTHIRYEVDVSAGNRAGGTQRVEVLEGRTECVLSNLRGGTRYTFAVRARMAEPSFSGFWSAWSEPASLLTASDLDPLILTLSLI
Turning to B2, the fold MFI over cells expressing mEpoR−GFP1-10 alone or the CHAMP-1 fusion alone in series [2] is > 4 fold.
